Measured values published in US20030158251A1, “Methods, pharmaceutical compositions and articles of manufacture for treating disorders associated with abnormal cell proliferation and apoptosis” (priority 2002, published 2003).
Where a SMILES comes first, the peptide text is derived from it. The star is where a group is joined. Cbz = O=C(OCc1ccccc1)*

Tests used:
[1] = tested on: p53; assay: Proteasome inhibitor block of dicoumarol-induced p53 elimination in HCT116 cells; type: cell-based, human; conditions: HCT116, 4 hrs with dicoumarol; 100 micromolar MG 132 or 40 micromolar lactacystin
Experimental: FIGS. 2a-b illustrate that proteasomal degradation is responsible for the dicoumarol-induced p53 decrease in cells. […] Immunoblots were carried out as in FIG. 1.
Cell extracts were prepared by lysis of PBS-washed cells in RIPA lysis buffer [150 mM NaCl, 1% NP-40 (vol/vol), 0.5% AB-deoxycholate (DOC vol/vol), 0.1% SDS (vol/vol), 50 mM Tris-Hcl pH 8, 1 mM dithiotireitol (DTT) and 1 micogram/ml each of leupeptin, aprotinin, pepstatin (Sigma cocktail)]. The insoluble pellet was discarded and protein concentration was determined using Bradford reagent (BioRad). Equal amounts of protein were mixed with Laemmli sample buffer (4% SDS, 20% glycerol, 10% 2-mercaptoeftanol and 0.125M Tris-Hcl), heated at 95° C. for 5 min and loaded on an 8% polyacrylamide-SDS gel. Following electophoresis, proteins were transferred to cellulose nitrate 0.45 micrometer membranes (Schleicher & Schuell, Dassel, Germany). Loading equivalence and transfer efficiency were monitored by Ponceau S staining and the membranes were then incubated with appropriate antibodies to proteins of interest followed by horse-radish peroxidase conjugated anti-IgG antibodies. […]
It is well documented that p53 accumulation is determined by the rate of its proteasomal degradation (reviewed in refs. 1,2).

[2] = tested on: p53; assay: Immunoblot of p53 level in M1-t-p53 cells; type: cell-based, mouse
Experimental: Immunoblot analysis was carried out using Pab 240 monoclonal anti p53 antibody. The blots were then stripped and re-probed with anti I-kappa-B and anti beta-tubulin antibody.
Immunoblot analysis was carried out using Pab 240 monoclonal anti p53 antibody and hamster anti mouse Bcl-2. FIG. 11a is an immunoblot of cell extracts from M1-t-p53 myeloid leukemic cells cultured for 6h at 32° C. or 37° C. without or with different concentrations of radicicol. Antibodies are indicated at left. FIG. 11b is an immunoblot of cell extracts from cells cultured at 32° C. for 6 or 2 h without (−) or with (+) 1 μM radicicol. Cells were also preincubated for 4 h at 32° C. and then cultured with 1 μM radicicol or 1 μM geldanamycin (geldan.) for 2 h (2 h*).
(§1) The cell lines used were: HCT116 human colon carcinoma cells, HCT116 HA-NQO1 over-expressing cells (45), p53 null HCT116 cells (Bunz, F., Dutiaux, A., Lengauer, C., Waldman, T., Zhou, S., Brown, J. P., Sedivy, J. M., Kinzler, K. W. & Vogelstein, B. (1998) Science 282, 1497-1501.), COS 1 monkey kidney cells, normal thymocytes obtained from 2.5 month old Balb/C mice and M1-t-p53 mouse myeloid leukemic cells that express a temperature-sensitive mutant p53 [Val-135] protein (Yonish-Rouach, E., Resnitzky, D., Lotem, J., Sachs, L., Kimchi, A. & Oren, M. (1991) Nature 352, 345-347).
(§2) The p53 in M1-t-p53 cells behaves like a tumor-suppressing wild-type p53 at 32° C. and like a mutant p53 at 37° C. (24). HCT116 and COS 1 cells were grown in Dulbecco's modified Eagle's medium (DMEM) supplemented with 10% fetal bovine serum (FBS), […] penicillin, and 100 µg/ml streptomycin and cultured at 37° C. in a humidified incubator with 5.6% C02. Normal thymocytes and M1-t-p53 cells were grown in DMEM supplemented with 10% heat inactivated (56° C., 30 min) horse serum and cultured at 37° C. in an incubator with 10% […].
(§3) Cell extracts were prepared by lysis of PBS-washed cells in RIPA lysis buffer [150 mM NaCl, 1% NP-40 (vol/vol), 0.5% AB-deoxycholate (DOC vol/vol), 0.1% SDS (vol/vol), 50 mM Tris-Hcl pH 8, 1 mM dithiotireitol (DTT) and 1 micogram/ml each of leupeptin, aprotinin, pepstatin (Sigma cocktail)]. The insoluble pellet was discarded and protein concentration was determined using Bradford reagent (BioRad). Equal amounts of protein were mixed with Laemmli sample buffer (4% SDS, 20% glycerol, 10% 2-mercaptoeftanol and 0.125M Tris-Hcl), heated at 95° C. for 5 min and loaded on an 8% polyacrylamide-SDS gel. Following electophoresis, proteins were transferred to cellulose nitrate 0.45 micrometer membranes (Schleicher & Schuell, Dassel, Germany). Loading equivalence and transfer efficiency were monitored by Ponceau S staining and the membranes were then incubated with appropriate antibodies to proteins of interest followed by horse-radish peroxidase conjugated anti-IgG antibodies. Signals were developed using Super Signal (Pierce Poxkford, USA) at 20° C. for 5 min and the membranes were then exposed to X-ray film (Fuji Tokyo, Japan) for an appropriate time and developed. Membranes were stripped using 50 mM citric acid before using a different primary antibody. The antibodies used were; Monoclonal anti human p53 (Pab 1801) (26), monoclonal anti mouse and human p53 (Pab240), monoclonal anti I-kappa-B (Santa Cruz Biotechnology, Santa Cruz, Calif., USA), monoclonal anti beta-tubulin and anti HA (Sigma Chemical, St. Louis, Mo.).
(§4) These cells are viable and proliferate at 37° C. when the p53 behaves like a mutant form, but undergo apoptosis at 32° C. when the p53 behaves like wild-type (3).
Because interleukin 6 (IL-6) and the calcium mobilizing compound thapsigargin (TG) are known to be efficient anti-apoptotic agents in M1-t-p53 cells (3, 31), the effect of these compounds on p53 stability was also investigated. […] (FIG. 6a).

[3] = tested on: p53; assay: Immunoblot of p53 level in HCT116 cells treated with dicoumarol; type: cell-based, human; conditions: for p53 level: HCT116 cells, 400 micromolar dicoumarol; for accumulation of p53 upon γ-irradiation: HCT116 γ-irradiated at 6 Gy, 4 hrs
Experimental: Protein levels of each lane probed were calibrated by probing with monoclonal anti beta-tubulin antibody. Dic—Dicoumarol.
as §3
Blots were stripped and re-probed with monoclonal anti beta-tubulin antibody as a control for equal protein loading in each lane.
Since it is known that irradiation cause accumulation of p53 within cells, an additional event was conducted on irradiated cells. […] As expected, p53 accumulated upon γ-irradiation (compare FIG. 1b lanes 1 and 2).

[4] = tested on: p53; assay: Immunoblot of p53 level in COS 1 cells expressing SV40 large T antigen; type: cell-based, monkey; conditions: COS 1 cells gamma irradiated at 6 Gy, up to 400 micromolar, 4 hrs
Experimental: Cell extracts were prepared by lysis of PBS-washed cells in RIPA lysis buffer [150 mM NaCl, 1% NP-40 (vol/vol), 0.5% AB-deoxycholate (DOC vol/vol), 0.1% SDS (vol/vol), 50 mM Tris-Hcl pH 8, 1 mM dithiotireitol (DTT) and 1 micogram/ml each of leupeptin, aprotinin, pepstatin (Sigma cocktail)]. The insoluble pellet was discarded and protein concentration was determined using Bradford reagent (BioRad). Equal amounts of protein were mixed with Laemmli sample buffer (4% SDS, 20% glycerol, 10% 2-mercaptoeftanol and 0.125M Tris-Hcl), heated at 95° C. for 5 min and loaded on an 8% polyacrylamide-SDS gel. Following electophoresis, proteins were transferred to cellulose nitrate 0.45 micrometer membranes (Schleicher & Schuell, Dassel, Germany). Loading equivalence and transfer efficiency were monitored by Ponceau S staining and the membranes were then incubated with appropriate antibodies to proteins of interest followed by horse-radish peroxidase conjugated anti-IgG antibodies. Signals were developed using Super Signal (Pierce Poxkford, USA) at 20° C. for 5 min and the membranes were then exposed to X-ray film (Fuji Tokyo, Japan) for an appropriate time and developed. Membranes were stripped using 50 mM citric acid before using a different primary antibody. […]

[5] = tested on: normal thymocytes; assay: Apoptosis in gamma irradiated normal thymocytes; type: cell-based, mouse
Source text: as §1
(§5) Apoptosis in normal thymocytes was induced by gamma irradiation 4 Gy (Co^60 source 0.63 Gy/min) and in M1-t-p53 cells by culture at 32° C. The percentage of apoptotic thymocytes was determined on May-Grünwald-Giemsa-stained cytospin preparations by counting 400 cells 5 hrs post gamma-irradiation. Apoptotic cells were scored by their smaller size, condensed chromatin, and fragmented nuclei compared with non-apoptotic cells. Analysis of DNA fragmentation during apoptosis in thymocytes was performed by DNA agarose gel electophoresis as described (27). Apoptotic M1-t-p53 cells undergo secondary changes including uptake of trypan-blue (28). The percent of viable cells (non apoptotic and not stained with trypan-blue) was determined by counting 400 cells in a hemocytometer after 23 hrs at 32° C.

[6] = tested on: p53; assay: Immunoblot of p53 level in gamma irradiated normal thymocytes; type: cell-based, mouse; conditions: for wild-type p53 accumulation: γ-irradiated normal thymocytes, 2 h, 200 μM dicoumarol, 5 μM radicicol or 5 μM geldanamycin
Experimental: Cell extracts were prepared after 2 h and apoptosis was determined after 5 h.

[7] = tested on: M1-t-p53 myeloid leukemic cells; assay: cells
Experimental: Cell viability was determined 23 h after culture at 32° C.
as §1, §2, §5, §4

[8] = tested on: p53; assay: Dicoumarol-induced p53 degradation in transfected p53 null HCT116 cells; type: cell-based, human; conditions: 5 h
Experimental: Antibodies used to probe and reprobe the blots are indicated at the left. Stripping and reprobing was as for FIGS. 8 and 9.
Transfection: Cells were seeded at 60% confluence in 6-well plates 16 h before transfection with the desired plasmids. Transfections were carried out by the calcium phosphate method followed by a 10% glycerol shock for 30 seconds, 7 h post transfection. The exact amount of plasmid used in each experiment is indicated in the corresponding figure legend. Whenever needed an empty vector was used to maintain a constant amount of 5 μg total DNA in each transfection mix. Cell extracts were generally prepared 24 h after transfection.
as §3, with “The antibodies used were; Monoclonal anti human p53 (Pab 1801) (26), monoclonal anti mouse and human p53 (Pab240), monoclonal anti I-kappa-B (Santa Cruz Biotechnology, Santa Cruz, Calif., USA), monoclonal anti beta-tubulin and anti HA (Sigma Chemical, St. Louis, Mo.).” left out

[9] = tested on: p53; assay: Immunoblot of p53 accumulation in 7-M12 myeloid leukemic cells; type: cell-based; conditions: 7-M12 cells; for accumulation of p53 following γ-irradiation or doxorubicin treatment: 2 h, 100 μM dicoumarol or 5 μM radicicol
Experimental: Immunoblot analysis was carried out using PAb 240 monoclonal anti p53 antibody and rabbit anti IκB FIG. 13a is an immunoblot of extracts from 7-M12 cells which were either not treated (none), γ-irradiated at 0.4 Gy or treated with 2.1 μM doxorubicin (Dox.). […] Cell extracts were prepared after 2 h and apoptosis was determined after 5 h.

[10] = tested on: thymocytes; assay: Dexamethasone induced apoptosis in thymocytes; type: cell-based, mouse; conditions: for apoptotic cells: dexamethasone treated thymocytes, from 42±3% without inhibitor
Source text: Accumulation of p53 in γ-irradiated or doxorubicin treated 7-M12 myeloid leukemic cells (28) induces expression of mdm2 and waf-1.

[11] = 32° C., 6 hrs, 10 nanomolar TG or 50 ng/ml IL-6
[12] = Mus musculus, 23 h, read-out: cell viability

In the case of `CC(C)C[C@@H](C=O)NC(=O)[C@H](CC(C)C)NC(=O)[C@H](CC(C)C)NC(=O)OCc1ccccc1` [MG132] (Cbz-Leu-Leu-Leu-aldehyde), the “block of dicoumarol-induced p53 elimination” value [1] is reported as “completely blocked”.

For `C/C=C(/C)C(=O)O[C@H]1C(C)=C2[C@H]([C@@H]1OC(=O)CCCCCCC)[C@@](C)(OC(C)=O)C[C@H](OC(=O)CCC)[C@@]1(O)[C@H]2OC(=O)[C@@]1(C)O` [TG, thapsigargin], the p53 level [2, 11] was “did not cause a reduction in p53 level”.

For `O=c1oc2ccccc2c(O)c1Cc1c(O)c2ccccc2oc1=O` [dicoumarol, 13-3′-methylene bis (4-hydroxycoumarin)], the level of beta-tubulin ([3]; HCT116, same conditions as the p53 blots (specificity control)) was “unaffected”, the p53 level ([3]; 90 min) was “significant reduction in p53 level” and the p53 level ([3]; 180 min) was “almost complete elimination of p53”. The “accumulation of p53 upon γ-irradiation” value ([3]; 200 micromolar) was “reduced”, the “accumulation of p53 upon γ-irradiation” value ([3]; 400 micromolar) was “further reduced” and the p53 level [4] was “not reduced”. For the same molecule, the “induction of apoptosis (morphology and DNA fragmentation)” value ([5]; 4 Gy gamma irradiated thymocytes, 100 and 200 micromolar, 5 hrs, dose dependent) was “inhibited induction of apoptosis”, the inhibition of apoptosis ([5]; 4 Gy gamma irradiated thymocytes, 200 micromolar) was “Complete inhibition of apoptosis” and the induction of apoptosis ([5]; γ-irradiated normal thymocytes, 5 h, 200 μM dicoumarol or 5 μM hsp90 inhibitor) was “completely inhibited”. For the same molecule, the “level of p53” value ([6]; 4 Gy gamma irradiated thymocytes, 100 and 200 micromolar, 5 hrs) was “decrease in the level of p53”, the “wild-type p53 accumulation” value [6] was “completely inhibited” and the “cell survival compared to cells without dicoumarol” value ([7]; M1-t-p53 cells, 32° C., 23 hrs, 75 or 100 micromolar) was “increase in cell survival”. The viability at 75 µM ([7]; Mus musculus, read-out: cell viability) was 52 ± 4%, the “level of I-kappa-B” value ([2]; 32° C., 6 hrs, 100 micromolar) was “did not affect” and the p53 level ([2]; 32° C., 16 hrs, 75 or 100 micromolar dicoumarol) was “reduced”. The “degradation of I-kappa-B or beta-tubulin” value ([2]; 37° C., 6 hrs, 100 micromolar) was “not of I-kappa-B or beta-tubulin”, the “degradation of mutant p53” value ([2]; 37° C., 6 hrs, 100 micromolar) was “induce degradation of p53” and the “dicoumarol induced p53 degradation” value ([8]; p53 null HCT116 co-transfected with p53 and LT, 300 μM) was “resistant to dicoumarol induced p53 degradation”. For the same molecule, the “dicoumarol induced p53 degradation” value ([8]; p53 null HCT116 transfected only with p53, 300 μM) was “sensitive to dicoumarol induced p53 degradation”, the “levels of Mdm-2 and LT” value ([8]; transfected p53 null HCT116, 300 μM) was “not affected” and the “accumulation of p53 following γ-irradiation or doxorubicin treatment” value [9] was “inhibited”.

`COC1=C2C[C@@H](C)C[C@H](OC)[C@H](O)[C@@H](C)/C=C(\C)[C@H](OC(N)=O)[C@@H](OC)/C=C\C=C(/C)C(=O)NC(=CC1=O)C2=O` [geldanamycin] showed a viability at 0.1 µM [7, 12] of 90 ± 4% and an apoptotic cells [10] of 5±2%.

`CC(=O)N[C@@H](CSC(=O)[C@]1([C@@H](O)C(C)C)NC(=O)[C@H](C)[C@@H]1O)C(=O)O` [lactacystin] was tested, and the “block of dicoumarol-induced p53 elimination” value [1] was “completely blocked”.

`C[C@@H]1C[C@H]2O[C@@H]2/C=C\C=C\C(=O)Cc2c(Cl)c(O)cc(O)c2C(=O)O1` [radicicol] was tested, and the “wild-type p53 accumulation” value [6] was “only a weak inhibition”, the “suppression of wild-type p53 induced apoptosis” value ([7]; M1-t-p53 cells cultured at 32° C., 23 h) was “strongly suppressed” and the viability at 0.1 µM [7, 12] was 90 ± 4%. For the same molecule, the p53 level ([2]; 32° C., 2 h, 1 μM, also after 4 h preincubation at 32° C.) was “decrease in p53 level”, the “level of p53 in its wild-type form” value ([2]; 32° C., 6 h incubation) was “strong decrease in the level of p53” and the “level of p53 in its mutant form” value ([2]; 37° C., 6 h incubation) was “strong decrease in the level of p53”. For the same molecule, the “level of Bcl-2” value ([2]; 6 h incubation, same conditions) was “no change”, the “inhibition of p53 accumulation relative to dicoumarol” value ([9]; 5 μM radicicol versus 100 μM dicoumarol) was “stronger effect” and the “accumulation of p53 following γ-irradiation or doxorubicin treatment” value [9] was “inhibited”. The apoptotic cells [10] was 5±2% and the “suppression of dexamethasone induced apoptosis” value ([10]; thymocytes) was “strongly suppressed”.

B1: IL6: interleukin 6, anti-apoptotic agent in M1-t-p53 cells (protein, UniProt P08505 25-211, looked up)
Interleukin-6: FPTSQVRRGDFTEDTTPNRPVYTTSQVGGLITHVLWEIVEMRKELCNGNSDCMNNDDALAENNLKLPEIQRNDGCYQTGYNQEICLLKISSGLLEYHSYLEYMKNNLKDNKKDKARVLQRDTETLIHIFNQEVKDLHKIVLPTPISNALLTDKLESQKEWLRTKTIQFILKSLEEFLKVTLRSTRQT
With B1 the p53 level [2, 11] was “did not cause a reduction in p53 level”.
